Data taken from the NIST ThermoML archive (doi:10.1016/j.jct.2014.04.016).

Settings: for electrical conductivity / viscosity / mass density: 101.33 kPa, Liquid; for electrical conductivity: Alternating current cell with electrodes; for viscosity: Concentric cylinders viscometry; for mass density: Vibrating tube method

CCCCCCCCOS(=O)(=O)[O-].CCn1cc[n+](C)c1 [1-ethyl-3-methylimidazolium octyl sulfate]
Settings | electrical conductivity [S/m] | mass density [kg/m3] | viscosity [mPa·s]
258.1 K | 0.002 | – | –
263.1 K | 0.003 | – | –
268.1 K | 0.005 | – | –
273.1 K | 0.008 | 1110.8 | 4561
278.1 K | 0.012 | 1107.4 | 2822
283.1 K | 0.017 | 1103.9 | 1815
288.1 K | 0.025 | 1100.5 | 1207
293.1 K | 0.034 | 1097.1 | 826.7
298.1 K | 0.046 | 1093.7 | 581
303.1 K | 0.06 | 1090.2 | 421.7
308.1 K | 0.078 | 1086.9 | 311.7
313.1 K | 0.098 | 1083.6 | 233.3
318.1 K | 0.124 | 1080.3 | 179.1
323.1 K | 0.153 | 1077.1 | 139.8
328.1 K | 0.193 | 1073.9 | 110.9
333.1 K | 0.232 | 1070.7 | 89.14
338.1 K | 0.279 | 1067.5 | 72.56
343.1 K | 0.329 | 1064.4 | 59.81
348.1 K | 0.385 | 1061.2 | 49.83
353.1 K | 0.447 | 1058.1 | 41.94
358.1 K | 0.514 | 1054.9 | 35.63
363.1 K | 0.584 | 1051.8 | 30.53
368.1 K | 0.661 | 1048.8 | 26.36
373.1 K | 0.731 | 1045.7 | 22.92

Settings | Normal melting temperature [°C]
Crystal, visual observation | 10
